According to patent US20260325533A1, “CDK INHIBITOR COMPOUNDS” (ALEKSIA THERAPEUTICS, INC., priority 2023, published 2026):
Like-named read-outs stand apart in the source and are kept apart here. One block for each compound: values may come before it.

Tests used:
Assay type in all cases: biochemical
CDK6/CCND1 = CDK6/CCND1 (Homo sapiens, UniProt Q00534); test: CDK6 homogeneous time-resolved fluorescence (HTRF) kinase assay; settings: CDK6/CCND
Outline: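 Enzyme pre-incubated 20 min at 23 °C with compound, then reacted 60 min at 23 °C with 1 mM ATP and 50 nM ULight-4E-BP1 (Thr37/46) peptide; 1 nM enzyme, 1% DMSO. EDTA-stopped, Eu-anti-phospho antibody TR-FRET read (665 nm or 665/615 ratio); 11-point half-log titration from 10 μM gave IC50.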

CDK2/CCNE1 = CDK2/CCNE1 (Homo sapiens, UniProt P24941); test: CDK2 homogeneous time-resolved fluorescence (HTRF) kinase assay; settings: CDK2/CCNE
Outline: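 Compounds were titrated 11-point, half-log from typically 10 μM against 3 nM CDK2/cyclin E1 at 1 mM ATP, with a 20 min enzyme preincubation. Phosphorylation of 50 nM ULight-4E-BP1 peptide over 60 min at 23 °C was detected by europium anti-phospho antibody TR-FRET.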

CDK4/CCND3 = CDK4/CCND3 (Homo sapiens, UniProt P11802); test: CDK4 homogeneous time-resolved fluorescence (HTRF) kinase assay; settings: CDK4/CCND
Outline: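 CDK4/CCND3 at 1.5 nM was preincubated with compound for 20 min at 23 °C, then reacted for 60 min with 1 mM ATP and 50 nM ULight-4E-BP1 (Thr37/46) peptide. The reaction was stopped with EDTA, and phosphorylation was read by HTRF with a Eu-anti-phospho antibody. IC50 values came from 11-point half-log titrations, typically from 10 μM.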

CDK1/CCNB1 = CDK1/CCNB1 (Homo sapiens, UniProt P06493); test: CDK1 homogeneous time-resolved fluorescence (HTRF) kinase assay; settings: CDK1/CCNB
Outline: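 0.5 nM CDK1/CCNB1 was preincubated 20 min at 23 °C with compound in HEPES pH-unspecified buffer (MgCl2, EGTA, DTT, Tween 20), then reacted 60 min with 1 mM ATP and 50 nM ULight-4E-BP1 (Thr37/46) peptide. EDTA-stopped reactions were detected with 2 nM Eu-anti-phospho antibody; IC50 from 11-point half-log titrations.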

[1] = >250 nM marked x, read-out: CDK6/CCND IC50 >250 nM
[2] = >250 nM marked x, read-out: CDK2/CCNE IC50 >250 nM
[3] = >250 nM marked x, read-out: CDK4/CCND IC50 >250 nM
[4] = >250 nM marked x, read-out: CDK1/CCNB IC50 >250 nM
[5] = x = IC50 >250 nM, read-out: CDK6/CCND IC50 (>250 nM column)
[6] = x = IC50 25-250 nM, read-out: CDK2/CCNE IC50 (25-250 nM)
[7] = x = IC50 >250 nM, read-out: CDK4/CCND IC50 (>250 nM column)
[8] = x = IC50 >250 nM, read-out: CDK1/CCNB IC50 (>250 nM column)
[9] = <25 nM, read-out: CDK2/CCNE IC50, <25 nM
[10] = >250 nM, read-out: CDK1/CCNB IC50 >250 nM
[11] = x = IC50 <25 nM, read-out: CDK2/CCNE IC50 (<25 nM)
[12] = x = IC50 25-250 nM, read-out: CDK1/CCNB IC50 (25-250 nM)
[13] = >250 nM, 1 mM ATP, read-out: CDK6/CCND IC50, >250 nM
[14] = >250 nM, read-out: CDK4/CCND IC50, >250 nM

CDK1/CCNB1, sequence (P06493 whole entry): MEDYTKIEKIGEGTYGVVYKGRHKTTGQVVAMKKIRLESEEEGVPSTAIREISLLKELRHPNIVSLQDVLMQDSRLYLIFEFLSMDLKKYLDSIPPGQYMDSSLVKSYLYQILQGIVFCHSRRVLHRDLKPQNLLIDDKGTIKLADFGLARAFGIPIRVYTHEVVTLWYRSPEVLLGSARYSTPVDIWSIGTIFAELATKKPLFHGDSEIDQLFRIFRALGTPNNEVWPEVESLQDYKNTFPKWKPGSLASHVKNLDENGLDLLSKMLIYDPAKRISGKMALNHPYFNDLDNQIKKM
CDK1/CCNB1, sequence (P14635 whole entry partner): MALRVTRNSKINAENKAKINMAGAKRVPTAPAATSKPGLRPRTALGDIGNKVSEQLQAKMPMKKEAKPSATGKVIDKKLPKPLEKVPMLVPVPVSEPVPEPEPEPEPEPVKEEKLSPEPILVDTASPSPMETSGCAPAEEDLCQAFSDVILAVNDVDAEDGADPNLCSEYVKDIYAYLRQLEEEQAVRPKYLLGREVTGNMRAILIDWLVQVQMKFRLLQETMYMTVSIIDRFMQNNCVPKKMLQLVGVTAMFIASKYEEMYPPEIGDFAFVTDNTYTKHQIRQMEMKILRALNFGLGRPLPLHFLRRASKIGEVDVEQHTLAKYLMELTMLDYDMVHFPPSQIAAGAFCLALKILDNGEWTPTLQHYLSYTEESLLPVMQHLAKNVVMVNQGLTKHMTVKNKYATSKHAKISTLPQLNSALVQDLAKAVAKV
CDK4/CCND3, sequence (P11802 whole entry): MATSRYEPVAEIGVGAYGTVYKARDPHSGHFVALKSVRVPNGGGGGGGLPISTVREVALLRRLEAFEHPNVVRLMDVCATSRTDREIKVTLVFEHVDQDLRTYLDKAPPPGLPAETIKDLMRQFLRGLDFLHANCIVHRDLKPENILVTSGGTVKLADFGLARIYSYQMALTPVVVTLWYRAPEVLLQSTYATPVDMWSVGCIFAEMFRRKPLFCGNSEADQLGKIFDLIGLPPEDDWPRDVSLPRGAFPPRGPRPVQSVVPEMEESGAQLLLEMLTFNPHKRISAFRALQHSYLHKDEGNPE
CDK4/CCND3, sequence (P30281 whole entry partner): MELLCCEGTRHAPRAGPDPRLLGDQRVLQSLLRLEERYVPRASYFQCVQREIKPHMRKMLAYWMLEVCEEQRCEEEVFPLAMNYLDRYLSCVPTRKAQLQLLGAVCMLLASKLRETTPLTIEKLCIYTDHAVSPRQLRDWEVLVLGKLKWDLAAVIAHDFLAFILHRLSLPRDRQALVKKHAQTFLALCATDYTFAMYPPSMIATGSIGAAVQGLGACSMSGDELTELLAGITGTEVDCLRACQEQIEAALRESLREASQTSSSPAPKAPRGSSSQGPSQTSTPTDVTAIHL
CDK6/CCND1, sequence (Q00534 whole entry): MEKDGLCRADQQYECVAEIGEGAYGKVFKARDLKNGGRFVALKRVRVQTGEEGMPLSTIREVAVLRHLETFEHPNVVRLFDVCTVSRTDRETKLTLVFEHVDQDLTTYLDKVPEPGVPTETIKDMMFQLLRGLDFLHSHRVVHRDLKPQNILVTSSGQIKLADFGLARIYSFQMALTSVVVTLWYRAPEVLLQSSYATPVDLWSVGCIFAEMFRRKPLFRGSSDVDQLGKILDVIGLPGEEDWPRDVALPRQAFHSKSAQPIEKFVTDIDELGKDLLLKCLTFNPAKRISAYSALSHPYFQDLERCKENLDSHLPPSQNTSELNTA
CDK6/CCND1, sequence (P24385 whole entry partner): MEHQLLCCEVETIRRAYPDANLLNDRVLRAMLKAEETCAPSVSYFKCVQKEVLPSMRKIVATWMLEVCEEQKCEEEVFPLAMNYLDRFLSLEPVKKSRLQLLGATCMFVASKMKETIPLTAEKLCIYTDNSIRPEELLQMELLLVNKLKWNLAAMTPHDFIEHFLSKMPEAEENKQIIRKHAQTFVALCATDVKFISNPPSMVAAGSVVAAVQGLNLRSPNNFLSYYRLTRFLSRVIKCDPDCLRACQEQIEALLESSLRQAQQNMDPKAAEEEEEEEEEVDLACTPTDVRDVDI

IC50 (CDK6/CCND1; [1]): > 250 nM | IC50 (CDK2/CCNE1; [2]): > 250 nM | IC50 (CDK4/CCND3; [3]): > 250 nM | IC50 (CDK1/CCNB1; [4]): > 250 nM
SMILES: CS(=O)(=O)c1ccc(Nc2cc3c(ccnc3[C@H]3CC[C@H](C(=O)N4CCOCC4)CC3)cn2)cc1 [Ex 201, ((1r,4r)-4-(7-((4-(methylsulfonyl)phenyl)amino)-2,6-naphthyridin-1-yl)cyclohexyl)(morpholino)methanone]

IC50 (CDK6/CCND1; [5]): > 250 nM | IC50 (CDK2/CCNE1; [6]): 25 to 250 nM | IC50 (CDK4/CCND3; [7]): > 250 nM | IC50 (CDK1/CCNB1; [8]): > 250 nM
SMILES: CS(=O)(=O)c1ccc(Nc2cc3c(C#Cc4cncc5[nH]ncc45)nccc3cn2)cc1 [Ex 611, 5-((1H-pyrazolo[3,4-c]pyridin-4-yl)ethynyl)-N-(4-(methylsulfonyl)phenyl)-2,6-naphthyridin-3-amine]

IC50 (CDK6/CCND1; [5]): > 250 nM | IC50 (CDK2/CCNE1; [6]): 25 to 250 nM | IC50 (CDK4/CCND3; [7]): > 250 nM | IC50 (CDK1/CCNB1; [8]): > 250 nM
SMILES: CS(=O)(=O)c1ccc(Nc2cc3c(C#Cc4ccc(C#N)nc4)nccc3cn2)cc1 [Ex 669, 5-((7-((4-(methylsulfonyl)phenyl)amino)-2,6-naphthyridin-1-yl)ethynyl)picolinonitrile]

IC50 (CDK6/CCND1; [1]): > 250 nM | IC50 (CDK2/CCNE1; [2]): > 250 nM | IC50 (CDK4/CCND3; [3]): > 250 nM | IC50 (CDK1/CCNB1; [4]): > 250 nM
SMILES: CS(=O)(=O)c1ccc(Nc2cc3c(N4CC5(CN(c6ccc(C#N)cc6)C5)C4)nccc3cn2)cc1 [Ex 248, 4-(6-(7-((4-(methylsulfonyl)phenyl)amino)-2,6-naphthyridin-1-yl)-2,6-diazaspiro[3.3]heptan-2-yl)benzonitrile]

IC50 (CDK6/CCND1; 25-250 nM, 1 mM ATP, read-out: CDK6/CCND IC50, 25-250 nM): 25 to 250 nM | IC50 (CDK2/CCNE1; [9]): < 25 nM | IC50 (CDK4/CCND3; 25-250 nM, read-out: CDK4/CCND IC50, 25-250 nM): 25 to 250 nM | IC50 (CDK1/CCNB1; [10]): > 250 nM
SMILES: Cc1c(-c2nccc3cnc(Nc4ccc(S(=O)(=O)N5CCOCC5)cc4)cc23)ccc2c1cnn2CC(C)(C)O [Ex 922, 2-methyl-1-(4-methyl-5-(7-((4-(morpholinosulfonyl)phenyl)amino)-2,6-naphthyridin-1-yl)-1H-indazol-1-yl)propan-2-ol]

IC50 (CDK6/CCND1; [5]): > 250 nM | IC50 (CDK2/CCNE1; [11]): < 25 nM | IC50 (CDK4/CCND3; [7]): > 250 nM | IC50 (CDK1/CCNB1; [12]): 25 to 250 nM
SMILES: CC1(C)C(=O)Nc2nc(C#Cc3nccc4cnc(Nc5ccc(S(C)(=O)=O)cc5)cc34)ccc21 [Example 374, 3,3-dimethyl-6-((7-((4-(methylsulfonyl)phenyl)amino)-2,6-naphthyridin-1-yl)ethynyl)-1,3-dihydro-2H-pyrrolo[2,3-b]pyridin-2-one]

IC50 (CDK6/CCND1; [5]): > 250 nM | IC50 (CDK2/CCNE1; [6]): 25 to 250 nM | IC50 (CDK4/CCND3; [7]): > 250 nM | IC50 (CDK1/CCNB1; [8]): > 250 nM
SMILES: CS(=O)(=O)c1ccc(Nc2cc3c(C#Cc4cccnc4O)nccc3cn2)cc1 [Ex 583, 3-((7-((4-(methylsulfonyl)phenyl)amino)-2,6-naphthyridin-1-yl)ethynyl)pyridin-2(1H)-one]

IC50 (CDK6/CCND1; 25-250 nM marked x, read-out: CDK6/CCND IC50 25-250 nM): 25 to 250 nM | IC50 (CDK2/CCNE1; <25 nM, read-out: CDK2/CCNE IC50 <25 nM): < 25 nM | IC50 (CDK4/CCND3; 25-250 nM marked x, read-out: CDK4/CCND IC50 25-250 nM): 25 to 250 nM | IC50 (CDK1/CCNB1; [4]): > 250 nM
SMILES: C=CS(=O)(=O)N1CCC(Nc2cc3c(-c4ccncc4C)nccc3cn2)CC1 [Ex 107, 5-(3-methylpyridin-4-yl)-N-(1-(vinylsulfonyl)piperidin-4-yl)-2,6-naphthyridin-3-amine]

IC50 (CDK6/CCND1; [5]): > 250 nM | IC50 (CDK2/CCNE1; [6]): 25 to 250 nM | IC50 (CDK4/CCND3; [7]): > 250 nM | IC50 (CDK1/CCNB1; [8]): > 250 nM
SMILES: Nc1ncccc1C#Cc1nccc2cnc(Nc3cnc(O)c(N4CCNCC4)c3)cc12 [Example 465, 5-((5-((2-aminopyridin-3-yl)ethynyl)-2,6-naphthyridin-3-yl)amino)-3-(piperazin-1-yl)pyridin-2-ol]

IC50 (CDK6/CCND1; [13]): > 250 nM | IC50 (CDK2/CCNE1; [9]): < 25 nM | IC50 (CDK4/CCND3; [14]): > 250 nM | IC50 (CDK1/CCNB1; [10]): > 250 nM
SMILES: Cc1c(-c2nccc3cnc(Nc4ccc(NS(=O)(=O)c5ccc(N6CCN(C)CC6)cc5)cc4)cc23)ccc2c1cnn2CC(C)(C)O [Ex 785, N-(4-((5-(1-(2-hydroxy-2-methylpropyl)-4-methyl-1H-indazol-5-yl)-2,6-naphthyridin-3-yl)amino)phenyl)-4-(4-methylpiperazin-1-yl)benzenesulfonamide]

IC50 (CDK6/CCND1; [5]): > 250 nM | IC50 (CDK2/CCNE1; [11]): < 25 nM | IC50 (CDK4/CCND3; x = IC50 25-250 nM, read-out: CDK4/CCND IC50 (25-250 nM)): 25 to 250 nM | IC50 (CDK1/CCNB1; [12]): 25 to 250 nM
SMILES: CNS(=O)(=O)c1ccc(Nc2cc3c(C#Cc4cccnc4N)nccc3cn2)cc1 [Ex 469, 4-((5-((2-aminopyridin-3-yl)ethynyl)-2,6-naphthyridin-3-yl)amino)-N-methylbenzenesulfonamide]

IC50 (CDK6/CCND1; [5]): > 250 nM | IC50 (CDK2/CCNE1; [11]): < 25 nM | IC50 (CDK4/CCND3; [7]): > 250 nM | IC50 (CDK1/CCNB1; [8]): > 250 nM
SMILES: CS(=O)(=O)c1ccc(Nc2cc3c(C#Cc4ccc(CN5CCOCC5)cc4)nccc3cn2)cc1 [Example 666, N-(4-(methylsulfonyl)phenyl)-5-((4-(morpholinomethyl)phenyl)ethynyl)-2,6-naphthyridin-3-amine]

IC50 (CDK6/CCND1; [13]): > 250 nM | IC50 (CDK2/CCNE1; 25-250 nM, read-out: CDK2/CCNE IC50, 25-250 nM): 25 to 250 nM | IC50 (CDK4/CCND3; [14]): > 250 nM | IC50 (CDK1/CCNB1; [10]): > 250 nM
SMILES: Cc1c(-c2nccc3cnc(Nc4cccc(C(=O)Nc5ccccc5)c4)cc23)ccc2c1cnn2CC(C)(C)O [Ex 929, 3-((5-(1-(2-hydroxy-2-methylpropyl)-4-methyl-1H-indazol-5-yl)-2,6-naphthyridin-3-yl)amino)-N-phenylbenzamide]
